Patent publication US20100305098A1, “METHODS OF USE” (priority 2007, published 2010)
One block for each compound: values may come before it.

What was measured:
Naive CD4 T cells = experiment: Mouse Th1 differentiation assay; assay type: cell-based; conditions: for effect on Th1 differentiation: added during Th1 differentiation, 3 days
Method: In vitro T cell assays. Naive CD4^+ T cells were purified from spleens of either BALB/c or D011.10 mice by Robosep as described by the manufacture. For BALB/c mice, 1×10^5 of CD4^+ T cells were cultured for 3-6 days in a 96-well plate in 100 μl of complete RPMI medium (Cellgro) containing either 10% of regular fetal bovine serum (Hyclone) or charcoal stripped FBS (Hyclone) (when exogenous PGE2 or EP4 agonists were added to the culture) under either neutral condition (1 μg/ml of plate-bound anti-CD3+1 μg/ml of soluble anti-CD28+10 ng/ml of mouse IL-2) or under Th1 promoting condition (neutral+5 ng/ml of mouse IL-12+10 μg/ml of anti-IL-4) or under Th2 differentiation condition (neutral+10 ng/ml of mouse IL-4+10 μg/ml of […]). IFNγ or IL-4 in culture supernatants were detected by ELISA. Cell pellets were used to measure cell proliferation with either Alamar blue or CellTiter-Glo reagents according to the instructions of the manufacture. For D011.10 mice, mitomycin C treated splenocytes from BALB/c mice were used as antigen presenting cells and co-cultured with naive CD4^+ T cells in 5 to 1 ratio (5×10^5 of mitomycin C treated splenocytes in 100 μl medium+1×10^5 CD^4 T cells in 100 μl medium) and stimulated with OVA peptide (0.3 ng/ml) under either neutral, Th1 or Th2 promoting conditions as described above. EP4 agonists, antagonists or anti-PGE2 Ab were added during Th cell differentiation.
To investigate whether EP4 activation plays a role in Th1 differentiation, the effect of PGE2 or EP4 agonist and anti-PGE2 antibody was examined in a mouse Th1 differentiation assay. Naive CD4 T cells were differentiated with Th1 promoting agents for 3 days. Th1 cytokine IFNγ in culture supernatants was measured by ELISA. Cell proliferation was measured by Alamar blue assay. PGE2 or EP4 agonist PGE1-OH was added during Th1 differentiation.

EP4 = biological target: T1, EP4 (Homo sapiens, UniProt P35408); experiment: PGE2 induced CRE-PLAP reporter assay in SE302 cells; assay type: cell-based; conditions: tested at 0.3 nM to 10 μM
T1 construct: SE302 cells that express endogenous EP4; endogenous in cells; host or cells: SE302 cells
Method: CRE-PLAP reporter assay. SE302 cells that express endogenous EP4 were stimulated with PGE2 in the presence or absence of ER-819762 for overnight, and PLAP activity was measured.

[1] = system: activated mouse CD4+ T cells; experiment: IL-17 production in activated mouse CD4+ T cells; assay type: cell-based; conditions: anti-CD3/anti-CD28 stimulated CD4+ T cells
Method: To study the effect of EP4 agonist/antagonist on IL-17 production, total CD4^+ T cells from C57BL/6 mice were activated with plate-bound anti-CD3 (2 μg/ml) plus soluble anti-CD 28 (2 μg/ml) in the presence or absence of IL-23 (10 ng/ml) or EP4 agonist/antagonists at indicated concentrations for 3-5 days. Culture supernatants were analyzed by IL-17 ELISA, and cell pellets were used to measure cell proliferation with CellTite-Glo reagents.
To investigate whether EP4 also plays a role in a Th17 response, the effect of EP4 activation by PGE2 or EP4 agonist on IL-17 production in activated mouse CD4^+ T cells was examined. Total CD4^+ T cells were stimulated with anti-CD3/anti-CD28 with and without IL-23 and in the presence or absence of PGE2 or EP4 agonist PGE1-OH (0.1 nM to 1000 nM) for 3-5 days. IL-17 in culture supernatants was measured by ELISA and cell proliferation was measured by CellTiter-glo.

activated human MoDCs = experiment: Human MoDC IL-23 secretion assay; assay type: cell-based; conditions: PGE1-OH (10 nM); LPS/R-848 activated human MoDCs, 24 h; read-out: IC50 (Ave. of two experiments), inhibiting PGE1-OH enhanced IL-23 production
Method: In vitro human monocytes derived DC assay. CD14^+ cells were purified from human PBMCs using Miltenyi CD14 microbeads, and differentiated with human GM-CSF (500 U/ml)+human IL-4 (500 U/ml) in complete RPMI medium containing 10% charcoal-stripped FBS for […]. The unattached imDCs were stimulated with LPS (10 ng/ml)+R-848 (2.5 μg/ml) with or without addition of EP4 agonist/antagonist or anti-PGE2 Ab at the concentrations indicated for 24 h. IL-23 in culture supernatants were measured by ELISA (eBioscience).
Human CD14^+ monocytes were differentiated into imDCs with GM-CSF plus IL-4 for 7 days and re-stimulated with LPS/R-848 in the presence or absence of exogenous PGE1-OH (1-100 nM) and with and without ER-819762 (FIG. 13) or ER-819924 or anti-PGE2 Ab (FIG. 14) for 24 h. IL-23 secretion in culture supernatants was measured by ELISA. […] IC50 values of representative compounds in human MoDC IL-23 secretion assay.

CAIA mouse = experiment: Suppression of arthritis development in CAIA; assay type: in vivo; conditions: once daily PO day 0 to day 7
Method: Suppression of arthritis development in CAIA. BALB/c mice were injected i.v. with 1 mg of anti-type II collagen antibody at day 0, and 3 days later 25 μg of LPS was injected i.p. with active compound and methotrexate (MTX) was given once daily PO from day 0 to day 7. Arthritis score and body weight was monitored over the course of study.

human T-bet = human T-bet (Homo sapiens, UniProt Q9UL17); experiment: HEKT-bet-luc assay (normalized); assay type: cell-based; conditions: reference compound used for normalization; read-out: established potency of the reference compound (IC50)
Method: HEKT-bet-luc assay: This assay measures a T-bet dependent reporter (luciferase) activity in engineered HEK cells that express a human T-bet and a T-box responsive element driving luciferase reporter. HEKT-bet cells were plated at 2×10^4/well in 96-well plate and compound was added into cell culture for 24 hours. Luciferase activity was measured by adding 50 μl of Steady-Glo reagent (Promega) and samples were read in Victor V reader (PerkinElmer). The activity of compound was determined by comparing compound treated samples to non-compound treated vehicle controls. The IC50 values were calculated utilizing a maximum value corresponding to the amount of luciferase in the absence of a test compound and a minimum value corresponding to a test compound value obtained at maximum inhibition.
Determination of Normalized HEKT-bet IC50 values: Compounds were assayed in microtiter plates. […] The un-normalized IC50 value for a particular compound was divided by the IC50 value determined for the reference compound in the same microtiter plate to provide a relative potency value. […]
Exemplary compounds of the present invention were assayed according to the methods set forth above in the HEKT-bet-luc assay described above. Table 2 below set forth exemplary compounds of the present invention having an IC50 of up to the indicated amount (μM) as determined by the normalized HEKT-bet-luc assay described above.

T1 sequence (P35408 whole entry): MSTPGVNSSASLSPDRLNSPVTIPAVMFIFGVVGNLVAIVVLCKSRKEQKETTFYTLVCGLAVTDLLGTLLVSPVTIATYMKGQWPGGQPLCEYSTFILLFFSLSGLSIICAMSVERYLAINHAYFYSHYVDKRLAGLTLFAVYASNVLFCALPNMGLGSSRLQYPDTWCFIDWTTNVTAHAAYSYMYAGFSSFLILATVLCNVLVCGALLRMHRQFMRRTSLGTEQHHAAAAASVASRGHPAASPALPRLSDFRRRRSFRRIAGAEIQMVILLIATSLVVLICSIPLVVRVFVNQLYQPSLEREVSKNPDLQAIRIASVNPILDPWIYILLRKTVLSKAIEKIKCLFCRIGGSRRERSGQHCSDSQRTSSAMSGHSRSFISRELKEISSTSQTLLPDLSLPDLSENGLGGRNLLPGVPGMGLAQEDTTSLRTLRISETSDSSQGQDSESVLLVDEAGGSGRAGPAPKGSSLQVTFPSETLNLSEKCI
Sequence of human T-bet (Q9UL17 whole entry): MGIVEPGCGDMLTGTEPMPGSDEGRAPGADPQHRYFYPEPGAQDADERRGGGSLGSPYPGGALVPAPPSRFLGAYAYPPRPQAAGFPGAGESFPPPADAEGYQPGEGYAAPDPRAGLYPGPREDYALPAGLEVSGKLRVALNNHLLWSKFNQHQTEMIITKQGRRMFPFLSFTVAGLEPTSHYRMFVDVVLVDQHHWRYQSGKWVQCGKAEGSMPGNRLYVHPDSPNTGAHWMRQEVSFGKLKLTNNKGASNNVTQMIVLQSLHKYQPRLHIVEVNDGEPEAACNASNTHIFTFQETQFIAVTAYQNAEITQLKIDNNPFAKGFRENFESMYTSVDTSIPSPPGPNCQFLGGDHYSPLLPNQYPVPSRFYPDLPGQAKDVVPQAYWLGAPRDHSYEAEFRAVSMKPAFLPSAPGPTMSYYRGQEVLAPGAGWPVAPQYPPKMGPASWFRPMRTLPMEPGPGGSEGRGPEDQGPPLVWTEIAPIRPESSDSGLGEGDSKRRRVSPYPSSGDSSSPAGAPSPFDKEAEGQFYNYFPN

inhibition of PGE2 induced CRE-PLAP reporter activity (EP4): potent inhibitory activities
IC50 (activated human MoDCs): 40 to 200 nM
SMILES: CCN1C(=O)N2Cc3cc(OC)cc(OC)c3[C@@H](C)C=C2C12CCN(Cc1cc(C)cc(C)c1)CC2 [ER-819762]
added activity to anti-PGE2 Ab in Th1 differentiation (Naive CD4 T cells; combination with anti-PGE2 Ab): no added activity
effect on PGE2/PGE1-OH enhanced IL-17 production [1]: suppresses

SMILES: CCCCC[C@H](O)/C=C/[C@H]1[C@H](O)CC(=O)[C@@H]1CCCCCCCO [PGE1-OH, PGE1-alcohol]
effect on Th1 differentiation (Naive CD4 T cells): enhanced Th1 differentiation

SMILES: CCCCC[C@H](O)/C=C/[C@H]1[C@H](O)CC(=O)[C@@H]1C/C=C\CCCC(=O)O [PGE2, prostaglandin E2]
effect on Th1 differentiation (Naive CD4 T cells): enhanced Th1 differentiation

IC50 (activated human MoDCs): 185 nM
SMILES: CCN1C(=O)N2Cc3cc(OC)cc(OC)c3[C@@H](C)C=C2C12CCN(Cc1c[nH]nc1C)CC2 [ER-819826-01]

SMILES: CN(Cc1cnc2nc(N)nc(N)c2n1)c1ccc(C(=O)N[C@@H](CCC(=O)O)C(=O)O)cc1 [methotrexate]
activity in CAIA model (CAIA mouse): not particularly active

SMILES: CCN1C(=O)N2Cc3cc(OC)cc(OC)c3[C@@H](C)C=C2C12CCN(Cc1cccn1C)CC2 [ER-819924]
inhibition of PGE2 induced CRE-PLAP reporter activity (EP4): potent inhibitory activities
IC50 (activated human MoDCs): < 200 nM

IC50 (human T-bet): 35 nM
SMILES: COCCN1C(=O)N2Cc3cc(OC)cc(OC)c3C(C)(C)C=C2C12CCN(Cc1cc(OC)cc(OC)c1)CC2 [ER-819544]

IC50 (activated human MoDCs): 57 nM
SMILES: CCN1C(=O)N2Cc3cc(OC)cc(OC)c3[C@@H](C)C=C2C12CCN(Cc1nc(C)oc1C)CC2 [ER-811283-01]

SMILES: CCN1C(=O)N2Cc3cc(OC)cc(OC)c3[C@@H](C)C=C2C12CCN(Cc1cc(C)cc(C)c1)CC2 [ER-819762-01]
effect on PGE2/PGE1-OH enhanced IL-17 production [1]: suppressed the activity
